How the values were obtained:
[1] = test system: azole-resistant Candida albicans R357 strain; assay: microbe, parasite or virus in culture; assay type: cell-based; conditions: for MIC: Candida albicans
[2] = test system: C. albicans ATCC 44858, DPL001, R357; assay: Time-kill assay in vagina-simulative medium pH 4.0 (Table 16); assay type: cell-based, Candida albicans; conditions: ATCC 44858 (FLU S)
[3] = test system: C. glabrata CG01, ATCC 200918, MMX 7070; assay: Time-kill assay in vagina-simulative medium pH 4.0 (Table 17); assay type: cell-based, Candida glabrata; conditions: C. glabrata CG01 (FLU S), VSM pH 4.0
[4] = test system: C. tropicalis CTO2, MMX 7255, MMX 7525; assay: Time-kill assay in vagina-simulative medium pH 4.0 (Table 18); assay type: cell-based, Candida tropicalis; conditions: C. tropicalis CT02 (FLU S), VSM pH 4.0
[5] = test system: C. parapsilosis CP02, CP01, MMX 7370; assay: Time-kill assay in vagina-simulative medium pH 4.0 (Table 19); assay type: cell-based, Candida parapsilosis; conditions: C. parapsilosis CP02 (FLU S), VSM pH 4.0

For `CC[C@@H]([C@H](C)O)n1ncn(-c2ccc(N3CCN(c4ccc(OC[C@@H]5CO[C@@](Cn6cncn6)(c6ccc(F)cc6F)C5)cc4)CC3)cc2)c1=O` [Posaconazole], which MIC [1] is on record?
Its MIC is over 64 µg/mL.

`C[C@@H](c1ncncc1F)[C@](O)(Cn1cncn1)c1ccc(F)cc1F` [Voriconazole] was tested. Which “Susceptibility (CLSI)” value ([1]; C. albicans R357) did it give?
Its value is “R”.

And the MIC [1]?
The MIC was over 64 µg/mL.

For `CC(C)N1CCN(c2ccc(OCC3COC(Cn4cncn4)(c4ccc(Cl)cc4Cl)O3)cc2)CC1` (stereo not drawn) [TCZ, terconazole], which “log-fold change in CFU” value ([2]; 24 h, 2 μg/mL) is on record?
The value was 0.33 log-fold.

And the “log-fold change in CFU” value ([2]; 24 h, 8 μg/mL)?
The value was 0.33 log-fold.

What about the “log-fold change in CFU” value ([2]; 24 h, 32 μg/mL) of the same compound?
The value was −1.16 log-fold.

And the “log-fold change in CFU” value ([2]; 24 h, 128 μg/mL)?
Its value is −1.41 log-fold.

And the “log-fold change in CFU” value ([2]; 48 h, 2 μg/mL)?
The value was 2.00 log-fold.

And the “log-fold change in CFU” value ([2]; 48 h, 8 μg/mL)?
Its value is 1.38 log-fold.

What about the “log-fold change in CFU” value ([2]; 48 h, 32 μg/mL) of the same compound?
Its value is −1.07 log-fold.

What about the “log-fold change in CFU” value ([2]; 48 h, 128 μg/mL) of the same compound?
The value was −1.64 log-fold.

And the “log-fold change in CFU” value ([2]; 72 h, 2 μg/mL)?
The value was 2.52 log-fold.

What about the “log-fold change in CFU” value ([2]; 72 h, 8 μg/mL) of the same compound?
The value was 2.27 log-fold.

And the “log-fold change in CFU” value ([2]; 72 h, 32 μg/mL)?
The value was −0.41 log-fold.

And the “log-fold change in CFU” value ([2]; 72 h, 128 μg/mL)?
Its value is −0.81 log-fold.

What about the “log-fold changes in CFU” value ([3]; 24 h, 2 μg/mL) of the same compound?
The value was 2.43 log-fold.

And the “log-fold changes in CFU” value ([3]; 24 h, 8 μg/mL)?
The value was 2.43 log-fold.

What about the “log-fold changes in CFU” value ([3]; 24 h, 32 μg/mL) of the same compound?
The value was 2.40 log-fold.

What about the “log-fold changes in CFU” value ([3]; 24 h, 128 μg/mL) of the same compound?
The value was 1.79 log-fold.

And the “log-fold changes in CFU” value ([3]; 48 h, 2 μg/mL)?
The value was 2.42 log-fold.

What about the “log-fold changes in CFU” value ([3]; 48 h, 8 μg/mL) of the same compound?
The value was 2.45 log-fold.

What about the “log-fold changes in CFU” value ([3]; 48 h, 32 μg/mL) of the same compound?
Its value is 2.36 log-fold.

And the “log-fold changes in CFU” value ([3]; 48 h, 128 μg/mL)?
Its value is 2.35 log-fold.

What about the “log-fold changes in CFU” value ([3]; 72 h, 2 μg/mL) of the same compound?
The value was 2.47 log-fold.

And the “log-fold changes in CFU” value ([3]; 72 h, 8 μg/mL)?
The value was 2.19 log-fold.

And the “log-fold changes in CFU” value ([3]; 72 h, 32 μg/mL)?
The value was 2.21 log-fold.

And the “log-fold changes in CFU” value ([3]; 72 h, 128 μg/mL)?
The value was 2.30 log-fold.

What about the “log-fold changes in CFU” value ([4]; 24 h, 2 μg/mL) of the same compound?
The value was 2.39 log-fold.

What about the “log-fold changes in CFU” value ([4]; 24 h, 8 μg/mL) of the same compound?
Its value is 2.33 log-fold.

And the “log-fold changes in CFU” value ([4]; 24 h, 32 μg/mL)?
The value was 0.00 log-fold.

What about the “log-fold changes in CFU” value ([4]; 24 h, 128 μg/mL) of the same compound?
The value was −1.00 log-fold.

What about the “log-fold changes in CFU” value ([4]; 48 h, 2 μg/mL) of the same compound?
The value was 2.57 log-fold.

And the “log-fold changes in CFU” value ([4]; 48 h, 8 μg/mL)?
Its value is 2.33 log-fold.

And the “log-fold changes in CFU” value ([4]; 48 h, 32 μg/mL)?
The value was 0.23 log-fold.

What about the “log-fold changes in CFU” value ([4]; 48 h, 128 μg/mL) of the same compound?
Its value is −1.00 log-fold.

What about the “log-fold changes in CFU” value ([4]; 72 h, 2 μg/mL) of the same compound?
Its value is 2.65 log-fold.

What about the “log-fold changes in CFU” value ([4]; 72 h, 8 μg/mL) of the same compound?
Its value is 2.52 log-fold.

What about the “log-fold changes in CFU” value ([4]; 72 h, 32 μg/mL) of the same compound?
The value was 0.27 log-fold.

What about the “log-fold changes in CFU” value ([4]; 72 h, 128 μg/mL) of the same compound?
The value was −0.94 log-fold.

What about the “log-fold changes in CFU” value ([5]; 24 h, 2 μg/mL) of the same compound?
Its value is 0.21 log-fold.

What about the “log-fold changes in CFU” value ([5]; 24 h, 8 μg/mL) of the same compound?
Its value is −0.79 log-fold.

And the “log-fold changes in CFU” value ([5]; 24 h, 32 μg/mL)?
Its value is −0.89 log-fold.

What about the “log-fold changes in CFU” value ([5]; 24 h, 128 μg/mL) of the same compound?
Its value is −0.95 log-fold.

And the “log-fold changes in CFU” value ([5]; 48 h, 2 μg/mL)?
Its value is 1.89 log-fold.

And the “log-fold changes in CFU” value ([5]; 48 h, 8 μg/mL)?
The value was −0.64 log-fold.

What about the “log-fold changes in CFU” value ([5]; 48 h, 32 μg/mL) of the same compound?
Its value is −2.48 log-fold.

And the “log-fold changes in CFU” value ([5]; 48 h, 128 μg/mL)?
Its value is −2.65 log-fold.

What about the “log-fold changes in CFU” value ([5]; 72 h, 2 μg/mL) of the same compound?
The value was 2.00 log-fold.

What about the “log-fold changes in CFU” value ([5]; 72 h, 8 μg/mL) of the same compound?
The value was −0.63 log-fold.

And the “log-fold changes in CFU” value ([5]; 72 h, 32 μg/mL)?
Its value is −2.78 log-fold.

And the “log-fold changes in CFU” value ([5]; 72 h, 128 μg/mL)?
Its value is −2.95 log-fold.

— US20180256673A1, “METHODS FOR TREATING FUNGAL INFECTIONS” (priority 2015, published 2018)
